The values below come from patent US20160168616A1, “PRODUCTION OF NONTOXIC RAW MATERIALS AND FINISHED PRODUCTS TESTED BY MEANS OF AN INNOVATIVE PROBIOTIC BACTERIA BASED METHOD FOR DETERMINING TOXICITY TOWARDS PROBIOTIC BACTERIA” (PROBIOTICAL S.P.A., priority 2013, published 2016).

This data set has as its system probiotic bacterial strains indicated in Table 1 with the numbers 17, 22, 41, 60, 74, 98, 121, 145, 174 and 182. The data set can be described thus: toxicity test of raw materials with the method of the invention (plate count, % mortality). As to conditions: raw material test; strains 17, 22, 41, 60, 74, 98, 121, 145, 174 and 182 of Table 1 as toxicity markers. The class given is cell-based.

Procedure: The method comprises a step in which the probiotic bacterial strain (toxicity marker) is placed in contact with a raw material to be tested using a quantity of raw material equal to that normally used in the formulation.
In practical terms, a first sample is prepared which comprises the probiotic bacterial strain (toxicity marker), the optimal culture substrate for said probiotic bacterial strain and the raw material to be tested.
Then a second sample (internal reference) is prepared which comprises the same probiotic bacterial strain used in said first sample (toxicity marker) and only the optimal culture substrate (without the raw material to be tested). […]
The ratio between the bacterial count (number of cells counted on the plate) of said first sample and the bacterial count (number of cells on the plate) of said second sample provides a number less than 1, which, if expressed as a percentage, provides a count of the bacteria which survived in contact with the raw material and, therefore, also expresses the % mortality induced by said raw material in the probiotic bacterial strains used as a marker. […]
8.11 incubate the plates upside down at 37±1° C. for 72 h under anaerobic conditions (Gas-Pak+anaerobic kit). […] The result will be expressed as CFU, i.e. Colony Forming Units. […]

`O=C(O)CC(O)(CC(=O)O)C(=O)O` [Citric Acid] had a mortality found of 2%.
